Results taken from US12509446B2, “FYN and VEGFR2 kinase inhibitors” (ROTTAPHARM BIOTECH S.R.L., priority 2019, dated 2025).
Read-outs that look alike come from different tables or passages of the source.

Tests used:
[1] = test system: rat primary articular chondrocytes; experiment: Toxicity analysis (MTT) in rat primary chondrocytes; conditions: for First toxic concentration at 24 h: rat primary chondrocytes
Protocol: Purified chondrocytes were resuspended in DMEM glutaMAX 10% and plated in a 96X well plate for toxicity analysis and in a 6X well plate for gene expression analysis.
For toxicity analysis cells were then treated with the different compounds for 24 and 48 h. At the end of the incubation time, the medium was removed and was substituted with a mixture 10:1 of DMEM glutaMAX 10%—MTT (2 mg/ml) for 1 h at 37° C. in the cell incubator. After this incubation, the precipitated salt was dissolved with 100 μl of DMSO and the plate was read at 540 nm. The toxicity analysis were performed to decide the maximal non toxic concentration of each compound used in the gene expression assay.

[2] = test system: COX2; experiment: Gene expression in rat articular chondrocytes under IL-1β stimulation, COX2; type: cell-based; conditions: for COX2 gene expression, percentage of inhibitory effect at the highest non toxic concentration: 24 h
[3] = test system: IL-1β; experiment: Gene expression in rat articular chondrocytes under IL-1β stimulation, IL-1β; type: cell-based; conditions: for IC50: Rattus norvegicus, Chondrocyte, 6 h incubation
Protocol: (§1) For gene expression analysis, 10 days after plating, the medium was changed and substituted with DMEM GlutaMAX I 0.4% to synchronize the cells. The cells were then co-treated in DMEM GlutaMAX I 0.4% with different concentrations of the test compounds and […] at a final concentration of 2 ng/ml for 6 h and 24 h. The test compound concentrations used have been chosen on the basis of the toxicity data.
(§2) At the end of the incubation, the supernatant was discarded, the cell were washed with cold PBS1X and scraped with 200 μl of RNA lysis buffer 1X (Nucleic Acid Purification Lysis Solution, Applied Biosystems).
(§3) Total RNA was purified using ABI Prism™ 6100 Nucleic Acid PrepStation (Applied Biosystems) following manufacturer's instructions.
(§4) Total RNA was retrotranscribed using the High-Capacity cDNA Archive Kit (Applied Biosystems-Thermo Fisher Scientific) following manufacturer's instructions.
(§5) The specific probes and primers for RealTime PCR were from Applied Biosystems (Thermo Fisher Scientific) as Assays-on-Demand™, while the probe and primers for the endogenous control 18S was a PDAR (Pre-Developed TaqMan® Assay Reagents—Applied Biosystems-Thermo Fisher Scientific).
(§6) The assays were designed to amplify target cDNA without amplifying genomic DNA.
(§7) Gene expression analysis for IL-1β, IL-6 and ADAMTS-5 were performed at 6 h incubation, while the gene expression analysis for MMP3, MMP13 and COX2 were performed at 24 h incubation.
(§8) For each compound the maximal concentration tested was dependent on the toxicity results obtained on primary rat chondrocytes.
(§9) The data analysis, with the normalisation on the amplified values for the 18S was done following the specific instruction of Applied Biosystems for the relative quantification of gene expression.

[4] = test system: IL-6; experiment: Gene expression in rat articular chondrocytes under IL-1β stimulation, IL-6; type: cell-based; conditions: for IL-6 gene expression, percentage of inhibitory effect at the highest non toxic concentration: 6 h; for IC50: Rattus norvegicus, Chondrocyte, 6 h incubation
Protocol: as §1, §2, §3, §4, §5, §6, §7, §8, §9

[5] = test system: ADAMTS-5; experiment: Gene expression in rat articular chondrocytes under IL-1β stimulation, ADAMTS-5; type: cell-based; set-up: key to ADAMTS-5 gene expression, no effect: ne: no effect
Protocol: as §1, §2, §3, §4, §5, §6, §7, §8, §9

[6] = biological target: VEGFR2 (Homo sapiens (Human), UniProt P35968); experiment: In vitro VEGFR2 kinase activity assay (Eurofins Cerep); type: biochemical; conditions: read-out: VEGFR2 KINASE INHIBITION IC50
Sequence of VEGFR2 (P35968 20-1356): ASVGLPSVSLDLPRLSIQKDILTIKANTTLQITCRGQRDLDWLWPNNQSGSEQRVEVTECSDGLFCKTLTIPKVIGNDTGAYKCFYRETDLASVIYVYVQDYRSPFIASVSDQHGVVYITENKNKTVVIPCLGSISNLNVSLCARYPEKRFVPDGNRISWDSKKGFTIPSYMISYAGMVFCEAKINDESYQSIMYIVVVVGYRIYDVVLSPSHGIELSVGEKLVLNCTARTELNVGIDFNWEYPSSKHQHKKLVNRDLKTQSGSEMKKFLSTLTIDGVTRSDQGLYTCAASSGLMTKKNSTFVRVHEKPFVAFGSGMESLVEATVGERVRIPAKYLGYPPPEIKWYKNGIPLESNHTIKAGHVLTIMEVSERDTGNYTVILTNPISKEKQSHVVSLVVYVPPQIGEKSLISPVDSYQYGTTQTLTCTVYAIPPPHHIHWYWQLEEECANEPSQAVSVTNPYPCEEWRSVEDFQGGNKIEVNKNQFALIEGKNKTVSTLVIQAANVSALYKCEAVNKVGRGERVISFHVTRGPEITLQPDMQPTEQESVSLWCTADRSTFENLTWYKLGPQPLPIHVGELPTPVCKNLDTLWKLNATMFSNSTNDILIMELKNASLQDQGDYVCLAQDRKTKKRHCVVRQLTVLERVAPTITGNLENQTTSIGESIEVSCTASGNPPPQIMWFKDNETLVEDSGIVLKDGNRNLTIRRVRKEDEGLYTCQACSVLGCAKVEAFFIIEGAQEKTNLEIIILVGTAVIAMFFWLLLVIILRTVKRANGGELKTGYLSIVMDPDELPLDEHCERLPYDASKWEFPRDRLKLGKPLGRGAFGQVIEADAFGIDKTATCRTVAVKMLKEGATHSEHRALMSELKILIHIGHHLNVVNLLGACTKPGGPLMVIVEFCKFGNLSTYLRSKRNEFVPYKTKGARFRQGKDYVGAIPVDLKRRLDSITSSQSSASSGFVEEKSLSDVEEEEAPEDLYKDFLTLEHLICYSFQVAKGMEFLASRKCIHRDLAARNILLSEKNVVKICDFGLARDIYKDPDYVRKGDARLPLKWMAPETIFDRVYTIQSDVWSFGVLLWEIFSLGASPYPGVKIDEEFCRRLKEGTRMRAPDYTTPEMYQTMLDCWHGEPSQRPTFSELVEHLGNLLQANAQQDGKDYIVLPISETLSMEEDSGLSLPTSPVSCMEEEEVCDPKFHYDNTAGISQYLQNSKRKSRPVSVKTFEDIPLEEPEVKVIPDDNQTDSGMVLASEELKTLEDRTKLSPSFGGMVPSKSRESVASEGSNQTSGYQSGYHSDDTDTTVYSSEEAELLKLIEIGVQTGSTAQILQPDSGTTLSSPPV
Protocol: The VEGFR2 kinase inhibitory activity of representative examples of compounds of Formula (I) assays was evaluated in Eurofins Cerep (France). The concentration range of the inhibitors under investigation was from 10^−8 M up to 10^−5 M final concentration. Some compounds were re-tested in a concentration-range starting from 10^−9 M. The results are expressed as a percent of control activity (in the absence of test compound) and the IC50 values were determined by non-linear regression analysis of the inhibition/concentration curves generated with mean replicate values.

[7] = biological target: Fyn (Homo sapiens (Human), UniProt P06241); experiment: Z′-LYTE in vitro Fyn kinase activity assay; type: biochemical; conditions: ATP 50 μM; read-out: FYN KINASE INHIBITION IC50
Sequence of Fyn (P06241 whole entry): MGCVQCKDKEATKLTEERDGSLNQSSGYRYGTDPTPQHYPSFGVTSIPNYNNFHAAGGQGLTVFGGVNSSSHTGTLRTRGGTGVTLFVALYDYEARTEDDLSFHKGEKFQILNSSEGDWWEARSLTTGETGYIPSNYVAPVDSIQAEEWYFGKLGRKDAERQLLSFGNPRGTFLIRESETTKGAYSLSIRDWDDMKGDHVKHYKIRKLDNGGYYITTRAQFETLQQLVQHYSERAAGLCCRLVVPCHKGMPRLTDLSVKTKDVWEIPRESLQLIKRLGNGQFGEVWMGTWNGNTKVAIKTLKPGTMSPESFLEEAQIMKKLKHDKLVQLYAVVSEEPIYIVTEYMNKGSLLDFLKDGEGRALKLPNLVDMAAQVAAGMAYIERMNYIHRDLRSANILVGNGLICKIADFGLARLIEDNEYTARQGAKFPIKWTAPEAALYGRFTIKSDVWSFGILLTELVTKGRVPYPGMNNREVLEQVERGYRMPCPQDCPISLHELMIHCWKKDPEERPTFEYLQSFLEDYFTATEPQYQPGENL
Protocol: The Fyn kinase inhibitory activity of representative examples of compounds of Formula (1) was evaluated by Z′-LYTE™ Kinase Assay Platform (Invitrogen). Compounds were evaluated towards active Fyn (full length active, molecular weight 87.1 kDa; Invitrogen). […] Samples representing the 0% inhibition (or total enzymatic activity) were in the presence of compound diluent (1% DMSO final in Reaction Buffer 50 mMHepes, 10 mM MgCl2, 1 mM EGTA, 0.01% Brij-35, pH 7.5). The kinase reaction was carried out in a total volume of 10 μl, for 60 minutes at 25° C. The 0% Phosphorylation (i.e. no ATP) and 100% Phosphorylation Assay Controls, included in each plate, allowed to calculate the percent phosphorylation achieved in the specific reaction well. Results are expressed as percentage of inhibition and the IC50 values were calculated by non-linear curve fitting using GraphPad™ Prism software (version 6 for Windows).

[8] = test system: NF-kB; experiment: Gene reporter (GR) assay, NF-kB activation after TNFα in JB6 Cl 41-5a (P+) cells; type: cell-based, murine; conditions: for IC50: TNFα 2 ng/ml, non toxic concentrations, read-out: Gene reporter (GR) inhibition IC50
Excerpt: To determine if the compounds of the invention were active also in a cellular model, a gene reporter assay was established in a cell line (JB6 Cl 41-5a (P+)) know to activate Fyn kinase via an inflammatory stimuli (TNFα). GR assay measures the activation of the nuclear transcription factor NF-kB, situated down-stream the Fyn activation pathway. Products active in this analysis has to penetrate in the cell and inhibit the activation pathway of NF-kB.
The murine epithelial cell line JB6 Cl 41-5a (P+) (ATCC® Cat. #CRL-2010) was stably transfected with the pGL4.32[luc2P/NFkB-RE/Hygro] vector (Promega). Clonal selection was achieved by limiting with 80 μg/ml Hygromycin B. The clones were tested for their response to TNFα stimulus.
JB6(P+) NFkB-RE-luc2P transfected cells were used for the analysis of NF-kB activity modulation, after TNFα stimulation, by Fyn-inhibitors.
Cells were pre-treated with the different compounds for 1 h and then stimulated with 2 ng/ml TNFα for 4 h. Each tested condition was analyzed in quadruplicate.
The luciferase analysis was performed with ONE-Glo™+ToxLuciferase Reporter and Cell Viability Assay kit (Promega).

[9] = test system: MMP13; experiment: Gene expression in rat articular chondrocytes under IL-1β stimulation, MMP13; type: cell-based; set-up: key to MMP13 gene expression, no effect: ne: no effect; conditions: 24 h
Protocol: as §1, §2, §3, §4, §5, §6, §7, §8, §9

[10] = test system: MMP3; experiment: Gene expression in rat articular chondrocytes under IL-1β stimulation, MMP3; type: cell-based; set-up: key to MMP3 gene expression, no effect: ne: no effect; conditions: for MMP3 gene expression, no effect: 24 h
Protocol: as §1, §2, §3, §4, §5, §6, §7, §8, §9

[11] = test system: bovine nasal septum cartilage; experiment: Inhibition of cartilage degradation (GAG release) induced by IL-1α in a bovine in vitro model; type: cell-based; conditions: Bos taurus; 3 μM; read-out: Bovine cartilage degradation induced by IL-1α, % inhibitory effect at max concentration
Protocol: Nasal septum cartilage was collected from an eight months-old male bovine in a local slaughterhouse.
Tissue was sprayed with ethanol 70% and immediately put in sterile PBS with Antibiotic-Antimycotic stabilized solution (PBS-AASS). It was cut in order to obtain small punches (diameter 2 mm, 1 mm-thick). washed with sterile PBS-AASS, the slices were transferred in a 96X well plate (one piece per well) in DMEM 10%+AASS. 48 h later the cartilage was stimulated in white DMEM+0.1% BSA+AASS with IL-1α […] in the absence or presence of the studied compounds.
The compounds concentration used in this analysis was chosen depending on the toxicity results obtained in rat primary chondrocytes at 48 h of incubation.
After 48 h stimulation, the culture medium was collected and stored at −80° C. The cartilage punches were digested with papain at 65° C. for 2 h in phosphate buffer (0.05M pH 6.5 with 2 mM N-acetil-L-cisteine and 2 mM EDTA).
The glycosaminoglycan (GAG) determination was done by a colorimetric assay with 1,9 dimethyl methylene blue (DMB).
Digested cartilage samples were diluted in PBS-BSA 1%. To 100 μl of diluted samples or standard we added 100 μl DMB 2X. After 5-20 min incubation the samples were read at 590 nm (Titertek Multiscan Plus).
The cartilage degradation induced by IL-1α was expressed as: GAG (medium)/total GAG (medium+cartilage)×100

[12] = Rattus norvegicus, Chondrocyte, 24 h incubation

Cc1ccc(NC(=O)c2cc(S(=O)(=O)C3CC3)ccn2)cc1CCc1cc(Nc2cnccn2)[nH]n1 [Compound 8, 4-(cyclopropylsulfonyl)-N-(4-methyl-3-(2-(5-(pyrazin-2-ylamino)-1H-pyrazol-3-yl)ethyl)phenyl)picolinamide]
First toxic concentration at 24 h [1]: 3 µM | COX2 gene expression, percentage of inhibitory effect at the highest non toxic concentration ([2]; 1 μM): 1 μM 63% | IC50 [3]: 300 nM | IL-6 gene expression, percentage of inhibitory effect at the highest non toxic concentration ([4]; 1 μM): 1 μM 99% | ADAMTS-5 gene expression, no effect ([5]; 6 h): ne | IC50 [6]: < 10 nM | IC50 [7]: 20 nM | IC50 ([8]; Mus musculus, JB6 Cl 41-5a): < 250 nM | IC50 [8]: 233 nM | MMP13 gene expression, no effect [9]: ne | MMP3 gene expression, no effect [10]: ne

Cc1ccc(NC(=O)c2cccc(S(C)(=O)=O)c2)cc1CCc1cc(Nc2cnccn2)[nH]n1 [Compound 1, N-(4-methyl-3-(2-(5-(pyrazin-2-ylamino)-1H-pyrazol-3-yl)ethyl)phenyl)-3-(methylsulfonyl)benzamide]
First toxic concentration at 48 h in rat primary chondrocytes ([1]; 48 h): 10 µM | First toxic concentration at 24 h [1]: >10 µM | IC50 [2, 12]: 3100 nM | inhibition at 3 µM [11]: 88% | IC50 [3]: 2100 nM | IC50 [4]: 1600 nM | ADAMTS-5 gene expression, percentage of inhibitory effect at the highest non toxic concentration ([5]; 10 μM, 6 h): 10 μM 38% | IC50 ([8]; Mus musculus, JB6 Cl 41-5a): 5080 nM | MMP13 gene expression, percentage of inhibitory effect at the highest non toxic concentration ([9]; 10 μM): 10 μM 38% | MMP3 gene expression, no effect [10]: ne

Cc1nc(C#N)cc(Nc2cc(CCc3cc(NC(=O)c4ccc(CN(C)C)c(C(F)(F)F)c4)ccc3F)n[nH]2)n1 [Compound 39, N-(3-(2-(5-((6-cyano-2-methylpyrimidin-4-yl)amino)-1H-pyrazol-3-yl)ethyl)-4-fluorophenyl)-4-((dimethylamino)methyl)-3-(trifluoromethyl)benzamide]
First toxic concentration at 24 h [1]: 10 µM | COX2 gene expression, percentage of inhibitory effect at the highest non toxic concentration ([2]; 3 μM): 3 μM 99% | IL-1β gene expression, percentage of inhibitory effect at the highest non toxic concentration ([3]; 3 μM, 6 h): 3 μM 100% | IL-6 gene expression, percentage of inhibitory effect at the highest non toxic concentration ([4]; 3 μM): 3 μM 100% | IC50 ([5]; Rattus norvegicus, Chondrocyte, 6 h incubation): 500 nM | IC50 [6]: 11 nM | IC50 [7]: 1 nM | IC50 ([8]; Mus musculus, JB6 Cl 41-5a): 1060 nM | MMP13 gene expression, percentage of inhibitory effect at the highest non toxic concentration ([9]; 3 μM): 3 μM 90% | IC50 [10, 12]: 1200 nM

Cc1ccc(NC(=O)c2cc(C(F)(F)F)ccc2F)cc1CCc1cc(Nc2cnccn2)[nH]n1 [Compound 7, 2-fluoro-N-(4-methyl-3-(2-(5-(pyrazin-2-ylamino)-1H-pyrazol-3-yl)ethyl)phenyl)-5-(trifluoromethyl)benzamide]
First toxic concentration at 24 h [1]: 3 µM | COX2 gene expression, percentage of inhibitory effect at the highest non toxic concentration ([2]; 1 μM): 1 μM 41% | IC50 [3]: 100 nM | IC50 [4]: 200 nM | ADAMTS-5 gene expression, percentage of inhibitory effect at the highest non toxic concentration ([5]; 1 μM, 6 h): 1 μM 81% | IC50 [6]: < 10 nM | IC50 [7]: 63 nM | IC50 ([8]; Mus musculus, JB6 Cl 41-5a): 1160 nM | MMP13 gene expression, percentage of inhibitory effect at the highest non toxic concentration ([9]; 1 μM): 1 μM 38% | MMP3 gene expression, no effect [10]: ne

O=C(Nc1ccc(Cl)c(CCc2cc(Nc3cnccn3)[nH]n2)c1)c1cccc(C(F)(F)F)c1 [Compound 16, N-(4-chloro-3-(2-(5-(pyrazin-2-ylamino)-1H-pyrazol-3-yl)ethyl)phenyl)-3-(trifluoromethyl)benzamide]
IC50 [6]: < 10 nM | IC50 [7]: 24 nM | IC50 ([8]; Mus musculus, JB6 Cl 41-5a): 321 nM

Cc1ccc(NC(=O)c2cccc(C(F)(F)F)c2)cc1CCc1cc(NC(=O)c2ccccn2)[nH]n1 [Compound 18, N-(5-(2-methyl-5-(3-(trifluoromethyl)benzamido)phenethyl)-1H-pyrazol-3-yl)picolinamide]
IC50 [6]: 16 nM | IC50 [7]: 15 nM | IC50 ([8]; Mus musculus, JB6 Cl 41-5a): 974 nM

Cc1nc(Nc2cc(CCc3cc(NC(=O)c4cccc(C(F)(F)F)c4)ccc3F)n[nH]2)cc(N2CC[C@H](N(C)C)C2)n1 [Compound 32, (S)-N-(3-(2-(3-((6-(3-(dimethylamino)pyrrolidin-1-yl)-2-methylpyrimidin-4-yl)amino)-1H-pyrazol-5-yl)ethyl)-4-fluorophenyl)-3-(trifluoromethyl)benzamide]
IC50 [6]: < 10 nM | IC50 [7]: 9 nM | inhibition at 3 µM ([8]; Mus musculus, JB6 Cl 41-5a, 3 μM, read-out: Gene reporter (GR) inhibition % effect at max concentration): 29%

Cc1nc(Nc2cc(CCc3ccc(F)c(NC(=O)c4cccc(C(F)(F)F)c4)c3)n[nH]2)cc(N2CCOCC2)n1 [Compound 43, N-(2-fluoro-5-(2-(5-((2-methyl-6-morpholinopyrimidin-4-yl)amino)-1H-pyrazol-3-yl)ethyl)phenyl)-3-(trifluoromethyl)benzamide]
IC50 [6]: 10 nM | IC50 [7]: 19 nM | IC50 ([8]; Mus musculus, JB6 Cl 41-5a): 2440 nM
